Where two headings read alike, the source gives them in different places.
System: T1, P-19486 alliinase
T1 construct: homodimer 96 kDa, subunit 48 kDa; PLP-dependent
Assay: colorimetric pyruvic acid production
Assay type: biochemical, Ensifer adhaerens
Settings: 20 uM PLP, 50 mM sodium phosphate pH 7.0, 30°C, read-out: Kinetic constants / Km
Source text: colorimetric pyruvic acid production on P-19486 alliinase

Compound	Km (diastereomer mixture) [mM]	Km [mM]
C=CC[S+]([O-])C[C@H](N)C(=O)O (mixture of isomers) [(±)-Alliin]	2.3	–
C=CCSC[C@H](N)C(=O)O [S-Allyl-L-cysteine]	–	10.6
C=CC[S@+]([O-])C[C@H](N)C(=O)O [(+)-Alliin]	–	5.7
